Results: patent US20260176289A1, “SMALL MOLECULE INHIBITORS OF KRAS PROTEINS” (Merck Sharp & Dohme LLC, priority 2022, published 2026)
Where two headings read alike, the source gives them in different places.

Assays:
[1] = test system: AsPC-1 cells; experiment: Cellular phospho-ERK assay, AsPC-1 cells (homozygous KRAS-G12D); format: cell-based; conditions: Homo sapiens, ASPC1, 2 h, read-out: AsPC1 pERK IC50
How it was run: (§1)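 10k–15k cells/well, o/n attach; cpd 2 h, 37 °C, 10-pt 1:3 from 30 μM final; lyse with protease/phosphatase inhibitors 30 min RT; multiplex SureFire p-ERK + total ERK; IC50 via 4PL on ratio.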

[2] = target: KRAS-G12C (C51S/C80L/C118S) (Homo sapiens, UniProt P01116, C118S/C51S/C80L/G12C); experiment: SOS-catalyzed nucleotide exchange assay (Procedure A, TR-FRET), KRAS-G12C; format: biochemical; conditions: nucleotide exchange, Procedure A; read-out: KRAS G12C GNE IC50
KRAS-G12C (C51S/C80L/C118S), sequence (P01116 with tags, fused parts or gaps isoform P01116-2 G12C/C51S/C80L/C118S): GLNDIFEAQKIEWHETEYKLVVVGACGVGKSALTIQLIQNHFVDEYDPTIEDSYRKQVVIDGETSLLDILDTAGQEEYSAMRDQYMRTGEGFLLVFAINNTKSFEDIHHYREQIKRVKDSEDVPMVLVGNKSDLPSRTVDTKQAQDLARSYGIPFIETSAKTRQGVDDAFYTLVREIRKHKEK
How it was run: (§2)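 Signal ratio (520/495 nm, excitation 340 nm) reports Bodipy-GDP retention on biotinylated RAS after SOS-catalyzed exchange with 3 mM GTP. SOS was 40 nM, except 160 nM for G12V. Room-temperature exchange lasted 60 min (90 min for G12V), following a 60 min compound preincubation.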

[3] = test system: SW620 cells; experiment: Cellular phospho-ERK assay, SW620 cells (homozygous KRAS-G12V); format: cell-based; conditions: Homo sapiens, read-out: SW620 pERK IC50
How it was run: as §1

[4] = test system: MKN-1 cells; experiment: Cellular phospho-ERK assay, MKN-1 cells (amplified wild-type KRAS); format: cell-based; conditions: Homo sapiens, read-out: MKN1 pERK IC50
How it was run: as §1

[5] = target: KRAS-G13D (Homo sapiens, UniProt P01116, G13D); experiment: SOS-catalyzed nucleotide exchange assay (Procedure A, TR-FRET), KRAS-G13D; format: biochemical; conditions: nucleotide exchange, Procedure A; read-out: KRAS G13D GNE IC50
KRAS-G13D, sequence (P01116 with tags, fused parts or gaps isoform P01116-2 G13D): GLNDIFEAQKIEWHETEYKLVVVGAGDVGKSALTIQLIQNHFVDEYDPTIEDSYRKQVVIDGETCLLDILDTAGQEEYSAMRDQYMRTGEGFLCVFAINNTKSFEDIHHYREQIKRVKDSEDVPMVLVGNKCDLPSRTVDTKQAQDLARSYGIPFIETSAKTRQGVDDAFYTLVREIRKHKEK

[6] = target: KRAS-WT (Homo sapiens, UniProt P01116); experiment: SOS-catalyzed nucleotide exchange assay (Procedure A, TR-FRET), KRAS-WT; format: biochemical; conditions: nucleotide exchange, read-out: KRAS WT GNE IC50
KRAS-WT, sequence (P01116 with tags, fused parts or gaps isoform P01116-2): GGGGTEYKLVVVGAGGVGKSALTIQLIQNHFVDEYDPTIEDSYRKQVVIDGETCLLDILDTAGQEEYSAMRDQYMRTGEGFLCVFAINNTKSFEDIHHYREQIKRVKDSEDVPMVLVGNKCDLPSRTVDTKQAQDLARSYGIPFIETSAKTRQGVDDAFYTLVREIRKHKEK
How it was run: as §2

[7] = target: KRAS-G12V (Homo sapiens, UniProt P01116, G12V); experiment: SOS-catalyzed nucleotide exchange assay (Procedure A, TR-FRET), KRAS-G12V; format: biochemical; conditions: nucleotide exchange, read-out: KRAS G12V GNE IC50
KRAS-G12V, sequence (P01116 with tags, fused parts or gaps isoform P01116-2 G12V): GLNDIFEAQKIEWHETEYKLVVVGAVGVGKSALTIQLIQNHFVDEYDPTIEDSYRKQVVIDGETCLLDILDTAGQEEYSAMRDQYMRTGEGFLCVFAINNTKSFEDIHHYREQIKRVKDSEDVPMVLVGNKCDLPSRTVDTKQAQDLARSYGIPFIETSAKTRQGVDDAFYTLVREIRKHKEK
How it was run: as §2

[8] = target: HRAS (Homo sapiens, UniProt P01112); experiment: SOS-catalyzed nucleotide exchange assay (Procedure A, TR-FRET), HRAS; format: biochemical; conditions: read-out: HRAS GNE IC50
HRAS, sequence (P01112 with tags, fused parts or gaps): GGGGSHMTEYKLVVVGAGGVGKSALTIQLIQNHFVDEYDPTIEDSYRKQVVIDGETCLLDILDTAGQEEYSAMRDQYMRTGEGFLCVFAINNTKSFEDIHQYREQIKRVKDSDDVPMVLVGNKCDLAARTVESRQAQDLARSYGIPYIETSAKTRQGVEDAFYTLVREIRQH
Source text: Procedure for SOS-Catalyzed Nucleotide Exchange Assay for KRAS-WT, G12C/D/V, G13D, HRAS, and NRAS (Procedure A)
Recombinant KRAS-G12C protein used in this assay has an additional triple mutation (C51S/C80L/C118S). Whereas KRAS-WT, G12D/V, G13D, HRAS and NRAS are in context of their WT protein sequence background. Specifically, the SOS-catalyzed nucleotide exchange assay utilizes a preformed TR-FRET complex containing a specific biotinylated RAS protein (KRAS-WT, G12C/V/D, G13D, HRAS, NRAS; described above) with Bodipy-GDP, and Terbium-streptavidin. Compounds are preincubated with this complex for 60 minutes. Subsequently, recombinant human SOS protein and unlabeled GTP are added to initiate the exchange reaction. Small molecule inhibitors stabilize the Bodipy-GDP complex whereas the untreated protein rapidly exchanges Bodipy-GDP for unlabeled GTP resulting in reduced TR-FRET signal.
To assemble the preformed TR-FRET complexes, each biotinylated RAS protein is diluted to 2 μM in an EDTA Buffer (20 mM HEPES pH 7.5, 50 mM sodium chloride, 10 mM EDTA, and 0.01% Tween) and incubated at room temperature for one hour. This mixture is then further diluted to 90 nM in an Assay Buffer (20 mM HEPES pH 7.5, 150 mM sodium chloride, 10 mM magnesium chloride, and 0.005% Tween) containing 15 nM of Terbium-Streptavidin (Invitrogen, catalog #PV3577) and 900 nM of Bodipy-GDP (Invitrogen, catalog #G22360) and incubated at room temperature for six hours. It should be noted that this preformed TR-FRET complex for each of the RAS protein were made ahead of time, aliquoted and stored at −80° C. until the day of the experiment.
Each test compound (10 mM stock in DMSO) is diluted in DMSO to make a final-10-point, 3-fold dilution and is acoustically dispensed into a 384-well assay plate (Corning, catalog #3820) using an Echo 550 (Labcyte). Each well of the assay plate receives 3 μL of a specific 3×RAS preformed TR-FRET complex and 3 μL of Assay Buffer and is incubated at room temperature for 60 minutes (preincubation time). Each well then receives 3 μL of 3×recombinant human SOS protein and GTP (Sigma, G8877) in Assay Buffer and is incubated at room temperature for 30 minutes (G13D), 60 minutes (KRAS WT/G12C/D, H/NRAS) or 90 minutes for G12V. The final reaction in each well of 9 μL consists of 3 mM GTP, specific Ras and SOS proteins in the following concentrations: KRAS-G12C/SOS=3 nM/40 nM, KRAS-WT and G12D/SOS=1 nM/40 nM, KRAS-G12V/SOS=1.25 nM/160 nM. KRAS-G13D/SOS=1.25 nM/0 nM, HRAS and NRAS=1.25 nM/40 nM.
The time-resolved fluorescence resonance energy transfer (TR-FRET) signal is measured on an Envision (PerkinElmer) plate reader: Excitation filter=340 nm; emission 1=495 nm; emission2=520 nm; dichroic mirror=D400/D505; delay time=[…]. The signal of each well is determined as the ratio of the emission at 520 nm to that at 495 nm. Percent effect of each well is determined after normalization to control wells containing DMSO (no effect) or a saturating concentration of inhibitor (max effect). The apparent effect as a function of compound concentration is fit to a four-parameter logistic equation.

[9] = target: KRAS-G12D (Homo sapiens, UniProt P01116, G12D); experiment: SOS-catalyzed nucleotide exchange assay (Procedure A, TR-FRET), KRAS-G12D; format: biochemical; conditions: nucleotide exchange, read-out: KRAS G12D GNE IC50
KRAS-G12D, sequence (P01116 with tags, fused parts or gaps isoform P01116-2 G12D): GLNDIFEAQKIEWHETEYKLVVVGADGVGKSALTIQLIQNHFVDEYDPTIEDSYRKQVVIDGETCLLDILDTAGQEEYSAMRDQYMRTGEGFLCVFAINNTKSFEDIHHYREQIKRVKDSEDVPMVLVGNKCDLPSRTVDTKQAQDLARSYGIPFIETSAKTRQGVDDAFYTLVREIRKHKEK
How it was run: as §2

[10] = amplified wild-type KRAS, 2 hours
[11] = SW-620, 2 hours compound incubation

SMILES | IC50 [2] [nM] | IC50 [5] [nM] | IC50 [6] [nM] | IC50 [7] [nM] | IC50 [8] [nM] | IC50 [9] [nM] | IC50 ([1]; 2 hours compound incubation) [nM] | IC50 [3, 11] [nM] | IC50 ([4]; 2 hours compound incubation) [nM] | IC50 ([1]; KRAS-G12D, 2 hours) [nM] | IC50 ([3]; SW-620, KRAS-G12V, 2 hours) [nM] | IC50 [4, 10] [nM]
CC1CCc2cc3[nH]ncc3c(-c3nccc4c3sc3nc(OC[C@@]56CCCN5C[C@H](F)C6)nc(N5CCOC[C@@](C)(O)C5)c34)c21 (single isomer, unassigned) [Ex-103] | 18.1 | 4.51 | 6.28 | 8.72 | 8010 | 2.12 | – | – | – | 26.3 | 19.9 | 30.9
CCC1c2c(cc3[nH]ncc3c2-c2nccc3c2sc2nc(OC[C@@]45CCCN4C/C(=C\F)C5)nc(N4CCOC[C@@](C)(O)C4)c23)CC1(F)F (single isomer, unassigned) [Ex-109] | 34.2 | 4.73 | 6.12 | 5.48 | 8060 | 4.33 | – | – | – | 38.4 | 18.8 | 15.5
C#Cc1c(F)ccc2cc3[nH]ncc3c(-c3nccc4c3sc3nc(OC[C@@]56CCCN5C[C@H](F)C6)nc(N5CCOC[C@@](C)(O)C5)c34)c12 [Ex-160, (6S)-4-(8-(5-ethynyl-6-fluoro-1H-benzo[f]indazol-4-yl)-2-(((2R,7aS)-2-fluorotetrahydro-1H-pyrrolizin-7a(5H)-yl)methoxy)pyrido[4′,3′:4,5]thieno[2,3-d]pyrimidin-4-yl)-6-methyl-1,4-oxazepan-6-ol] | 53.2 | 4.55 | 4.41 | 5.25 | 5540 | 2.43 | 18.9 | 7.87 | 19.9 | – | – | –
CN1CCC[C@@]2(COc3nc(N4CCOC[C@@](C)(O)C4)c4c(n3)sc3c(-c5c(C6CC6)c(C(F)(F)F)cc6[nH]ncc56)nccc34)CCC[C@@H]12 [Ex-205, (6S)-4-(8-(5-cyclopropyl-6-(trifluoromethyl)-1H-indazol-4-yl)-2-(((4aS,7aR)-1-methyloctahydro-4aH-cyclopenta[b]pyridin-4a-yl)methoxy)pyrido[4′,3′:4,5]thieno[2,3-d]pyrimidin-4-yl)-6-methyl-1,4-oxazepan-6-ol] | 40.1 | 10.7 | 3.94 | 4.42 | 5090 | 1.69 | 22.3 | 15.1 | 17 | – | – | –

Continued by falling IC50 [2], values first:

IC50 [2] [nM] | IC50 [5] [nM] | IC50 [6] [nM] | IC50 [7] [nM] | IC50 [8] [nM] | IC50 [9] [nM] | IC50 ([1]; 2 hours compound incubation) [nM] | IC50 [3, 11] [nM] | IC50 ([4]; 2 hours compound incubation) [nM] | SMILES | IC50 ([1]; KRAS-G12D, 2 hours) [nM] | IC50 ([3]; SW-620, KRAS-G12V, 2 hours) [nM] | IC50 [4, 10] [nM]
38.7 | 5.03 | 4.38 | 5.09 | 5130 | 1.65 | 12.3 | 10.5 | 24.2 | C#Cc1cccc2cc3[nH]ncc3c(-c3nccc4c3sc3nc(OC[C@@]56CCCN5C[C@H](F)C6)nc(N5CCOC[C@@](C)(O)C5)c34)c12 [Ex-171, (6S)-4-(8-(5-ethynyl-1H-benzo[f]indazol-4-yl)-2-(((2R,7aS)-2-fluorotetrahydro-1H-pyrrolizin-7a(5H)-yl)methoxy)pyrido[4′,3′:4,5]thieno[2,3-d]pyrimidin-4-yl)-6-methyl-1,4-oxazepan-6-ol] | – | – | –
35.1 | 6.61 | 2.06 | 3.15 | 1890 | 1.49 | 5.76 | 2.76 | 14.6 | C#Cc1c(F)sc2cc3[nH]ncc3c(-c3nccc4c3sc3nc(OC[C@@]56CCCN5C[C@H](F)C6)nc(N5CCOC[C@@](C)(O)C5)c34)c12 [Ex-164] | – | – | –
23.3 | 10.1 | 5 | 4.82 | 10300 | 3.28 | 23.4 | 8.1 | 16.1 | CCc1c(F)ccc2cc3[nH]ncc3c(-c3nccc4c3sc3nc(OC[C@@]56CCCN5C[C@H](F)C6)nc(N5CCOC[C@@](C)(O)C5)c34)c12 [Ex-167, (6S)-4-(8-(5-ethyl-6-fluoro-1H-benzo[f]indazol-4-yl)-2-(((2R,7aS)-2-fluorotetrahydro-1H-pyrrolizin-7a(5H)-yl)methoxy)pyrido[4′,3′:4,5]thieno[2,3-d]pyrimidin-4-yl)-6-methyl-1,4-oxazepan-6-ol] | – | – | –
20.3 | 15 | 8.55 | 8.77 | 492 | 2.87 | 25.7 | – | – | [2H]C([2H])([2H])N(C[C@@]1(COc2nc(N3CCOC[C@@](C)(O)C3)c3c(n2)sc2c(-c4c(C5(F)CC5)c(Cl)cc5[nH]ncc45)nccc23)CC1(F)F)C([2H])([2H])[2H] [Ex-231] | – | – | –
15.5 | 7.05 | 7.7 | 13.5 | 9790 | 2.22 | 30.9 | 25.8 | 21.2 | CCC1CCc2cc3[nH]ncc3c(-c3nccc4c3sc3nc(OC[C@@]56CCCN5C[C@H](F)C6)nc(N5CCOC[C@@](C)(O)C5)c34)c21 (stereo partly drawn) [Ex-169, (6S)-4-(8-(5-ethyl-1,5,6,7-tetrahydro-cyclopenta[f]indazol-4-yl)-2-(((2R,7aS)-2-fluorotetrahydro-1H-pyrrolizin-7a(5H)-yl)methoxy)pyrido [4′,3′:4,5]thieno[2,3-d]pyrimidin-4-yl)-6-methyl-1,4-oxaze-pan-6-ol] | – | – | –
